{"source": "patent EP1891948A1", "about": "“Treatment of neurological and neuropsychological disorders” (Probiodrug AG, priority 2000, dated 2002)", "test_system": "WistarF/Han (WF) rats", "test": "1h food intake with Y1R antagonist pre-treatment (Example 4)", "format": "in vivo", "conditions": "i.c.v., isoleucyl thiazolidine 50nmol, Fig. 11", "procedure": "Animals. Male WistarF/Han (WF) rats (Central Animal Laboratory, Hannover Medical School, Hannover, Germany, see http://www.mh-hannover.de/institut/tierlabor/wf.htm for details), weighing 330±31 g±SD, were housed in a sound-proof, temperature controlled (24.0±0.5°C) room under specific pathogen free conditions with a 12/12h dark/light cycle (lights on at 07.00 with illumination level of 80 Lux). Food (Altromin lab chow pellets) and tap water were available ad libitum. Under ketamine/xylasine (100/5 mg/kg, i.p.) anesthesia, the rats were fixed in a Kopf stereotaxic frame and implanted with cannulae (Plastic One, Inc., Roanoke, VA, USA) above the lateral ventricle. All research and animal care procedures were approved by the Lower Saxony district government (Hannover, Germany) and followed principles described in the European Community's Council Directive of 24 November 1986 (86/609/EEC).\nSurgery and i.c.v. application. For surgery, rats were anesthetized and prepared with i.c.v. cannulae (coordinates: A:-0.7mm caudal, L:1.4mm lateral to bregma; and V3.2mm ventral to the skull surface; tooth bar +3.0 above ear bars) using standard stereotaxic procedures as described in detail elsewhere (von Hörsten et al., 1998a,b,c). After a 7-day recovery period, successful ventricle cannulation was confirmed by an angiotensin drinking response (von Hörsten et al., 1998a). Rats showing a positive drinking response (n=56) were then habituated to experimental handling by daily sham injections for seven days.\nAnimals were randomly divided into eight experimental groups (n=6-8/group), which completed one SI test of anxiety: (1) aCSF+aCSF+aCSF; (2) BIBP+aCSF+aCSF; (3) aCSF+isoleucyl thiazolidine+aCSF; (4) BIBP+isoleucyl thiazolidine+aCSF; (5) aCSF+aCSF+NPY; (6) BIBP+aCSF+NPY; (7) aCSF+P32/89+NPY; (8) BIBP+isoleucyl thiazolidine+NPY. Animals in each group were treated in an identical way in each phase, receiving i.c.v. injections -60mins and -55min before behavioral testing. Experiments spanned two nights with groups counterbalances on both dark cycles. The injection cannula was attached to a Hamilton microsyringe with approximately 30cm of polyethylene tubing and all compounds were infused in a total volume of 5.0µl at a rate of 5.0 µl/min using a TSE multichannel infusion pump (Bad Homburg, Germany). The time spent in active social interaction (SI-time), 1h, and 12h food-intake were measured.\nPeptides and Antagonist. Rat neuropeptide Y1-36 was obtained from Polypeptide Laboratories (Wolfenbüttel, Germany). The NPY Y1 receptor antagonist BIBP3226 was purchased from American Peptide Company, Sunnyvale, CA, USA (Cat#:60-1-22B). […]\nStatistical analysis. Data obtained from the measures SI time and 1h food intake were analyzed by one-way (factor: \"treatment\") ANOVA. […]", "data": [{"smiles": "CCC(C)C(N)C(=O)N1CCSC1", "note": "(centres unmarked) [isoleucyl thiazolidine]", "values": [{"measurement": "1h feeding under Y1R blockade", "setting": "BIBP3226 100nmol pre-treatment, NPY 0.8nmol", "value": "blocked"}, {"measurement": "1h food-intake", "setting": "without antagonist", "value": "non-significant slight increase"}]}]}
